Assays:
Test in all cases: Bliss excess, mean over the matrix (fraction); higher = more synergy
[1] = test system: 8305C (Thyroid Gland Carcinoma)
In short: (§1)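 Cell lines grown in DMEM/F12 or RPMI with 10% FBS were plated in 1536-well plates and held 24 hours at 37°C, 5% CO2 before 72 hours of exposure to two-drug dose matrices, with DMSO typically at 0.2%. CellTiter-Glo 2.0 luminescence gave viability, which was converted to inhibition. Vehicle wells were set to 0 and blank wells to 1. Combination Emax is the second-highest inhibition in the matrix, and Bliss excess is the observed combination effect minus the expected EA + EB − EA·EB, where EA and EB are the single-agent effects.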

NCI-H28 (Mesothelioma) = test system: NCI-H28 (Mesothelioma)
In short: as §1

[2] = test system: SUP-T1 (T-Lymphoblastic Leukemia)
In short: as §1

[3] = test system: OC-314 (Ovarian Carcinoma)
In short: as §1

[4] = test system: CTB-1 (B-Cell Non-Hodgkin's Lymphoma)
In short: as §1

[5] = test system: PCI-30 (Head and Neck Carcinoma)
In short: as §1

[6] = test system: CAL-51 (Breast Carcinoma)
In short: as §1

COLO-829 (Melanoma) = test system: COLO-829 (Melanoma)
In short: as §1

[7] = test system: KARPAS-231 (B-Cell Non-Hodgkin's Lymphoma)
In short: as §1

[8] = test system: CAL-54 (Kidney Carcinoma)
In short: as §1

[9] = test system: MDA-MB-468 (Breast Carcinoma)
In short: as §1

[10] = test system: KYSE-410 (Esophageal Squamous Cell Carcinoma)
In short: as §1

[11] = test system: LB771-HNC (Head and Neck Carcinoma)
In short: as §1

HMV-II (Melanoma) = test system: HMV-II (Melanoma)
In short: as §1

[12] = test system: RKO (Colorectal Carcinoma)
In short: as §1

[13] = test system: NCI-H747 (Colorectal Carcinoma)
In short: as §1

[14] = test system: SW1271 (Small Cell Lung Carcinoma)
In short: as §1

[15] = test system: TE-4 (Esophageal Squamous Cell Carcinoma)
In short: as §1

[16] = test system: RT-112 (Bladder Carcinoma)
In short: as §1

[17] = test system: LU-139 (Small Cell Lung Carcinoma)
In short: as §1

Structure (SMILES)	Bliss excess [1]	Bliss excess (NCI-H28 (Mesothelioma))	Bliss excess [2]	Bliss excess [3]	Bliss excess [4]	Bliss excess [5]	Bliss excess [6]	Bliss excess (COLO-829 (Melanoma))	Bliss excess [7]	Bliss excess [8]	Bliss excess [9]	Bliss excess [10]	Bliss excess [11]	Bliss excess (HMV-II (Melanoma))	Bliss excess [12]	Bliss excess [13]	Bliss excess [14]	Bliss excess [15]	Bliss excess [16]	Bliss excess [17]
CC1(C)CCC(CN2CCN(c3ccc(C(=O)NS(=O)(=O)c4ccc(NCC5CCOCC5)c([N+](=O)[O-])c4)c(Oc4cnc5[nH]ccc5c4)c3)CC2)=C(c2ccc(Cl)cc2)C1 [Venetoclax] + CCN(CCO)CCCOc1ccc2c(Nc3cc(CC(=O)Nc4cccc(F)c4)[nH]n3)ncnc2c1 [AZD2811] (first compound max 1 µM, 7x7, partner max 1 µM)	-0.0038	-0.0346	-0.0012	-0.0071	-0.118	-0.0231	0.046	-0.0359	-0.0484	-0.0105	-0.086	-0.0234	-0.028	0.0208	0.0096	-0.0429	-0.0483	-0.005	0.045	0.0596
CC1(C)CCC(CN2CCN(c3ccc(C(=O)NS(=O)(=O)c4ccc(NCC5CCOCC5)c([N+](=O)[O-])c4)c(Oc4cnc5[nH]ccc5c4)c3)CC2)=C(c2ccc(Cl)cc2)C1 [Venetoclax] + CN(C)CCCOc1ccc(-c2ccc3ncc4c(c3c2)n(C2CCOCC2)c(=O)n4C)cn1 [AZD0156] (first compound max 1 µM, 7x7, partner max 1 µM)	-0.0626	-0.0547	-0.0294	0.008	-0.024	-0.0665	0.0064	-0.0264	-0.0599	-0.0085	-0.0294	-0.0377	-0.0215	0.0134	0.0566	-0.0497	-0.0283	-0.0191	-0.0232	0.0014
CC1(C)CCC(CN2CCN(c3ccc(C(=O)NS(=O)(=O)c4ccc(NCC5CCOCC5)c([N+](=O)[O-])c4)c(Oc4cnc5[nH]ccc5c4)c3)CC2)=C(c2ccc(Cl)cc2)C1 [Venetoclax] + COc1cc(Nc2ncc3c(n2)-c2ccc(Cl)cc2C(c2c(F)cccc2OC)=NC3)ccc1C(=O)O [Alisertib] (first compound max 1 µM, 7x7, partner max 10 µM)	-0.0592	-0.0704	0.0423	0.0244	-0.0467	-0.0352	0.0319	-0.0548	0.0566	-0.0251	0.0409	-0.0651	-0.0185	-0.0414	-0.0062	0.0071	-0.0222	-0.034	-0.0323	0.149
CC1(C)CCC(CN2CCN(c3ccc(C(=O)NS(=O)(=O)c4ccc(NCC5CCOCC5)c([N+](=O)[O-])c4)c(Oc4cnc5[nH]ccc5c4)c3)CC2)=C(c2ccc(Cl)cc2)C1 [Venetoclax] + C[C@@H]1COCCN1C2=NC(=NC(=C2)C3(CC3)[S@](=N)(=O)C)C4=C5C=CNC5=NC=C4 [AZD6738] (first compound max 1 µM, 7x7, partner max 10 µM)	-0.0471	-0.059	-0.0098	-0.003	-0.0184	-0.0076	0.005	0.0059	-0.18	-0.0737	-0.028	-0.0473	-0.014	-0.0853	-0.0796	-0.0621	-0.0497	-0.0337	0.0228	-0.0111
CC1(C)CCC(CN2CCN(c3ccc(C(=O)NS(=O)(=O)c4ccc(NCC5CCOCC5)c([N+](=O)[O-])c4)c(Oc4cnc5[nH]ccc5c4)c3)CC2)=C(c2ccc(Cl)cc2)C1 [Venetoclax] + C[C@@H](Nc1cc(F)cc(F)c1)c1cc(C(=O)N(C)C)cc2c(=O)cc(N3CCOCC3)oc12 [AZD8186] (first compound max 1 µM, 7x7, partner max 3 µM)	-0.0423	-0.0502	-0.0402	-0.05	-0.0261	-0.0292	-0.0394	-0.0019	-0.184	0.0021	-0.0688	-0.0397	0.0083	0.0093	-0.049	0.0197	-0.055	-0.0315	-0.0197	0.0371
CC1(C)CCC(CN2CCN(c3ccc(C(=O)NS(=O)(=O)c4ccc(NCC5CCOCC5)c([N+](=O)[O-])c4)c(Oc4cnc5[nH]ccc5c4)c3)CC2)=C(c2ccc(Cl)cc2)C1 [Venetoclax] + Cc1cc2ncnn2cc1Nc1ncc2c(n1)n(C1CCOCC1)c(=O)n2C [AZD7648] (first compound max 1 µM, 7x7, partner max 10 µM)	-0.0293	-0.0166	-0.0109	-0.0115	-0.0638	-0.0545	-0.0323	-0.0367	-0.124	-0.0295	-0.0299	-0.0471	-0.006	-0.0407	-0.0396	-0.0124	-0.115	-0.0106	0.0066	-0.0013
CC1(C)CCC(CN2CCN(c3ccc(C(=O)NS(=O)(=O)c4ccc(NCC5CCOCC5)c([N+](=O)[O-])c4)c(Oc4cnc5[nH]ccc5c4)c3)CC2)=C(c2ccc(Cl)cc2)C1 [Venetoclax] + Cn1cnc2c(F)c(Nc3ccc(Br)cc3Cl)c(C(=O)NOCCO)cc21 [Selumetinib] (first compound max 1 µM, 7x7, partner max 3 µM)	-0.0583	-0.0449	-0.0723	-0.0214	-0.0475	-0.0429	-0.0088	-0.0392	-0.177	-0.0466	-0.0693	-0.0393	-0.0555	-0.0317	0.0171	-0.0489	-0.0255	-0.0277	0.0554	-0.0357
